This note sets out measurements from BindingDB's records for patent US10155765 (Merck Sharp & Dohme, 2018).

The assay concerns the target T1, Interleukin-1 receptor-associated kinase 4 (Homo sapiens, UniProt Q9NWZ3).
T1 sequence (Q9NWZ3 whole entry): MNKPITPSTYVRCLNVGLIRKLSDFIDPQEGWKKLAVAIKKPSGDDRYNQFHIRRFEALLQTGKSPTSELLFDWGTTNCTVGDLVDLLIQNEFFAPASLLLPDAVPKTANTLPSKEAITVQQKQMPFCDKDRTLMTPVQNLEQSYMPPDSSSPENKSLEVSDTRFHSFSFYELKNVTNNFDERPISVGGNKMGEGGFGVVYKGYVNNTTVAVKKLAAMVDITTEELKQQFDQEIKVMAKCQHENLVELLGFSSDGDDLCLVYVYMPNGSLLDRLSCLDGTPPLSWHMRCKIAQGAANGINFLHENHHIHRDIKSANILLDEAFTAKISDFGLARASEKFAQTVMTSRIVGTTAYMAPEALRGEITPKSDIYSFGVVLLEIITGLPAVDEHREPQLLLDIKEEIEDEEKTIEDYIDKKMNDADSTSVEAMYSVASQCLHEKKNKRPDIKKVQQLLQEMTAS
The experiment in a line: IRAK4 Kinase Assay.

Description: The kinase activity of IRAK4 is determined by its ability to catalyze the phosphorylation of a fluorescent polypeptide substrate. The extent of phosphorylation is measured using the IMAP technology (Molecular Devices) where the phosphorylated fluorescent substrate binds to the large M(III)-based nanoparticles which reduces the rotational speed of the substrate and thus increases its fluorescent polarization (FP).20 μL reaction mixture contains 10 mM TriHCl, pH 7.2, 0.5 nM GST tagged IRAK4 (SignalChem), 100 nM fluorescent peptide substrate (RP7030, Molecular Devices), 100 μM ATP, 1 mM DDT, 1 mM MgCl2, and 0.01% Tween 20. The reaction is initiated by the addition of ATP. After incubation for 30 minutes at 25° C., 60 μL of Progressive IMAP Reagent (Molecular Devices) is added to stop the reaction. Change in RP7030's FP is determined by a FP reader (Analyst HT, LJL BioSystems).

Consider `NC(=O)c1c(NC(=O)c2cnn3ccc(N4CCNCC4)nc23)cnn1-c1ccncc1` [US10155765, Example 35], for which the half-maximal inhibitory concentration (IC50) (in general, the concentration needed to halve the response being measured) stood at 310 nM.
Take `CSc1ncc2ccc(C(=O)Nc3cn(C)nc3C(N)=O)n2n1` [US10155765, Example 57]: the IC50 worked out at 370 nM.
